Reference: patent publication US9204653B2, “5-fluoro pyrimidine derivatives” (DOW AGROSCIENCES LLC, priority 2008, dated 2015)
Like-named read-outs stand apart in the source and are kept apart here.

Test system: Mycosphaerella graminicola; Anamorph: Septoria tritici; Bayer Code SEPTTR
Experiment: Leaf blotch of wheat, foliar fungicide treatment, one day protectant (1DP) or three day curative (3DC)
Format: in vivo, Septoria tritici on wheat plants (variety Yuma)
Conditions: Zymoseptoria tritici, rating of percent disease control
[1] = 24 h, one day protectant (1DP), read-out: SETTTR 1DP 25 ppm
[2] = 24 h, one day protectant (1DP), read-out: SEPTTR 1DP 100 ppm
[3] = 72 h, three day curative (3DC), read-out: SEPTTR 3DC 25 ppm
[4] = 72 h, three day curative (3DC), read-out: SEPTTR 3DC 100 ppm

`Cc1ccc(COc2ncc(F)c(N(N)C3CCCCC3)n2)cc1` [Compound 755] was tested. Which pest or weed control at 25 ppm [1] did it give?
Its pest or weed control at 25 ppm is 26 to 50%.

What about the pest or weed control at 100 ppm [2] of the same compound?
Its pest or weed control at 100 ppm is 26 to 50%.

And the pest or weed control at 25 ppm [3]?
Its pest or weed control at 25 ppm is 0 to 25%.

And the pest or weed control at 100 ppm [4]?
Its pest or weed control at 100 ppm is 0 to 25%.

Which pest or weed control at 25 ppm [1] does the source give for `Nc1nc(OCc2ccc(Br)cc2)ncc1F` [Compound 757] here?
Its pest or weed control at 25 ppm is 76 to 100%.

What about the pest or weed control at 100 ppm [2] of the same compound?
Its pest or weed control at 100 ppm is 76 to 100%.

What about the pest or weed control at 25 ppm [3] of the same compound?
Its pest or weed control at 25 ppm is 76 to 100%.

What about the pest or weed control at 100 ppm [4] of the same compound?
The pest or weed control at 100 ppm was 76 to 100%.

How did the pest or weed control at 25 ppm [1] turn out when `O=[N+]([O-])c1ccccc1SNc1nc(OCc2cccc(C(F)(F)F)c2F)ncc1F` [Compound 758] was run?
The pest or weed control at 25 ppm was 26 to 50%.

And the pest or weed control at 100 ppm [2]?
The pest or weed control at 100 ppm was 76 to 100%.

What about the pest or weed control at 25 ppm [3] of the same compound?
The pest or weed control at 25 ppm was 26 to 50%.

And the pest or weed control at 100 ppm [4]?
The pest or weed control at 100 ppm was 51 to 75%.

How did the pest or weed control at 25 ppm [1] turn out when `O=C(Nc1nc(OCc2cccs2)ncc1F)c1ccccc1` [Compound 759] was run?
Its pest or weed control at 25 ppm is 51 to 75%.

What about the pest or weed control at 100 ppm [2] of the same compound?
The pest or weed control at 100 ppm was 76 to 100%.

What about the pest or weed control at 25 ppm [3] of the same compound?
Its pest or weed control at 25 ppm is 26 to 50%.

What about the pest or weed control at 100 ppm [4] of the same compound?
The pest or weed control at 100 ppm was 76 to 100%.

For `CCCCCOC(=O)Nc1nc(OCc2cccc(F)c2)ncc1F` [Compound 762], which pest or weed control at 25 ppm [1] is on record?
Its pest or weed control at 25 ppm is 76 to 100%.

And the pest or weed control at 100 ppm [2]?
The pest or weed control at 100 ppm was 76 to 100%.

And the pest or weed control at 25 ppm [3]?
The pest or weed control at 25 ppm was 76 to 100%.

And the pest or weed control at 100 ppm [4]?
The pest or weed control at 100 ppm was 76 to 100%.

`Nc1nc(OCc2cccnc2)ncc1F` [Compound 763] was tested. Which pest or weed control at 25 ppm [1] did it give?
Its pest or weed control at 25 ppm is 76 to 100%.

And the pest or weed control at 100 ppm [2]?
Its pest or weed control at 100 ppm is 76 to 100%.

What about the pest or weed control at 25 ppm [3] of the same compound?
The pest or weed control at 25 ppm was 76 to 100%.

And the pest or weed control at 100 ppm [4]?
The pest or weed control at 100 ppm was 76 to 100%.

With `CC(C)(C)OC(=O)NNc1nc(OCc2ccccc2)ncc1F` [Compound 765] as the compound, how does the pest or weed control at 25 ppm [1] read?
Its pest or weed control at 25 ppm is 0 to 25%.

And the pest or weed control at 100 ppm [2]?
Its pest or weed control at 100 ppm is 26 to 50%.

And the pest or weed control at 25 ppm [3]?
The pest or weed control at 25 ppm was 0 to 25%.

And the pest or weed control at 100 ppm [4]?
Its pest or weed control at 100 ppm is 0 to 25%.

Which results are given for `Cc1ccc(COc2ncc(F)c(NNc3ccccc3)n2)cc1` [Compound 766]?
pest or weed control at 25 ppm [1]: 0 to 25%; pest or weed control at 100 ppm [2]: 51 to 75%; pest or weed control at 25 ppm [3]: 0 to 25%; pest or weed control at 100 ppm [4]: 26 to 50%

Which pest or weed control at 25 ppm [1] does the source give for `COc1cccc(C(=O)Oc2ncc(F)c(/N=C/N(C)C)n2)c1` [Compound 767] here?
Its pest or weed control at 25 ppm is 76 to 100%.

And the pest or weed control at 100 ppm [2]?
Its pest or weed control at 100 ppm is 76 to 100%.

And the pest or weed control at 25 ppm [3]?
Its pest or weed control at 25 ppm is 76 to 100%.

What about the pest or weed control at 100 ppm [4] of the same compound?
Its pest or weed control at 100 ppm is 76 to 100%.

What does the source list for `Nc1nc(OCCCc2ccncc2)ncc1F` [Compound 768]?
pest or weed control at 25 ppm [1]: 0 to 25%; pest or weed control at 100 ppm [2]: 26 to 50%; pest or weed control at 25 ppm [3]: 0 to 25%; pest or weed control at 100 ppm [4]: 26 to 50%

Which results are given for `COc1ccc(COc2ncc(F)c(NC(=S)Nc3ccccc3F)n2)cc1F` [Compound 769]?
pest or weed control at 25 ppm [1]: 51 to 75%; pest or weed control at 100 ppm [2]: 76 to 100%; pest or weed control at 25 ppm [3]: 0 to 25%; pest or weed control at 100 ppm [4]: 76 to 100%

How did the pest or weed control at 25 ppm [1] turn out when `COc1cccc(COc2ncc(F)c(NC(C)=S)n2)c1` [Compound 770] was run?
Its pest or weed control at 25 ppm is 76 to 100%.

What about the pest or weed control at 100 ppm [2] of the same compound?
The pest or weed control at 100 ppm was 76 to 100%.

And the pest or weed control at 25 ppm [3]?
Its pest or weed control at 25 ppm is 76 to 100%.

What about the pest or weed control at 100 ppm [4] of the same compound?
The pest or weed control at 100 ppm was 76 to 100%.

Which results are given for `CC(Oc1ncc(F)c(NC(=O)OCc2ccccc2)n1)c1ccc(F)cc1` (stereo not drawn) [Compound 771]?
pest or weed control at 25 ppm [1]: 76 to 100%; pest or weed control at 100 ppm [2]: 76 to 100%; pest or weed control at 25 ppm [3]: 76 to 100%; pest or weed control at 100 ppm [4]: 76 to 100%

`Cc1nc(C)c(COc2ncc(F)c(N)n2)s1` [Compound 772] was tested. Which pest or weed control at 25 ppm [1] did it give?
The pest or weed control at 25 ppm was 76 to 100%.

What about the pest or weed control at 100 ppm [2] of the same compound?
Its pest or weed control at 100 ppm is 76 to 100%.

And the pest or weed control at 25 ppm [3]?
The pest or weed control at 25 ppm was 76 to 100%.

And the pest or weed control at 100 ppm [4]?
Its pest or weed control at 100 ppm is 76 to 100%.

`COc1cccc(COc2ncc(F)c(NC(=O)Cc3ccccc3)n2)c1` [Compound 773] was tested. Which pest or weed control at 25 ppm [1] did it give?
Its pest or weed control at 25 ppm is 26 to 50%.

What about the pest or weed control at 100 ppm [2] of the same compound?
Its pest or weed control at 100 ppm is 76 to 100%.

What about the pest or weed control at 25 ppm [3] of the same compound?
Its pest or weed control at 25 ppm is 0 to 25%.

And the pest or weed control at 100 ppm [4]?
The pest or weed control at 100 ppm was 0 to 25%.

What does the source list for `CCCCCCOc1ncc(F)c(NC(=O)Nc2ccsc2)n1` [Compound 774]?
pest or weed control at 25 ppm [1]: 0 to 25%; pest or weed control at 100 ppm [2]: 0 to 25%; pest or weed control at 25 ppm [3]: 0 to 25%; pest or weed control at 100 ppm [4]: 0 to 25%

Which pest or weed control at 25 ppm [1] does the source give for `CC(C)(C)NNc1nc(OCc2ccc(F)cc2)ncc1F` [Compound 775] here?
The pest or weed control at 25 ppm was 0 to 25%.

And the pest or weed control at 100 ppm [2]?
The pest or weed control at 100 ppm was 0 to 25%.

What about the pest or weed control at 25 ppm [3] of the same compound?
The pest or weed control at 25 ppm was 0 to 25%.

And the pest or weed control at 100 ppm [4]?
The pest or weed control at 100 ppm was 0 to 25%.

What does the source list for `CCCNC(=O)Nc1nc(OCc2cccs2)ncc1F` [Compound 776]?
pest or weed control at 25 ppm [1]: 0 to 25%; pest or weed control at 100 ppm [2]: 0 to 25%; pest or weed control at 25 ppm [3]: 0 to 25%; pest or weed control at 100 ppm [4]: 0 to 25%
